Assay results: patent US20160159814A1, “GLYCINE TRANSPORTER INHIBITOR” (TAISHO PHARMACEUTICAL CO., LTD., priority 2013, published 2016)
pIC50: −log10 of the molar value.

Target: T1, human type 1 glycine transporter (GlyT1) (Homo sapiens, UniProt P48067)
T1 construct: T98G cells (glioma cells) expressing human type 1 glycine transporter (GlyT1) were used; endogenous in cells; host or cells: T98G cells (human glioma cells)
T1 sequence (P48067 1-706): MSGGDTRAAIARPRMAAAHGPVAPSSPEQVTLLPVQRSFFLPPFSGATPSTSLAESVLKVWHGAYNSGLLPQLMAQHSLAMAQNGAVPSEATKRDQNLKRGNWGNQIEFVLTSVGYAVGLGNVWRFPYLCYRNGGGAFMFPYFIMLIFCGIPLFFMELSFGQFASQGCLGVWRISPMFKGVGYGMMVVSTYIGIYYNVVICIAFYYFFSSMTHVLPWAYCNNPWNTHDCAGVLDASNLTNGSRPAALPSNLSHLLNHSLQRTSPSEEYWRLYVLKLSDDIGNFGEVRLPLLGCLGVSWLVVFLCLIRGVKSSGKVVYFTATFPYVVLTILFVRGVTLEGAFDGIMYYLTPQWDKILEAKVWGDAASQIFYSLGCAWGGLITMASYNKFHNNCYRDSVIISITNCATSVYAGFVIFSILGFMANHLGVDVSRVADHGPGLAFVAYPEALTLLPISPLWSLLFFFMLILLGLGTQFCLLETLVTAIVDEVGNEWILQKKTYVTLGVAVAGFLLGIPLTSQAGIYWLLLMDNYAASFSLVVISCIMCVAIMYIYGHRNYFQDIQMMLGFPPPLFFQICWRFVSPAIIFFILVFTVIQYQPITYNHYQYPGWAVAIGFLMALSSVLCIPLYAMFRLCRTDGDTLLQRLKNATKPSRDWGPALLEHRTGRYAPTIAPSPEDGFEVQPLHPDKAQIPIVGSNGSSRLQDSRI
Test: Glycine uptake inhibition experiment ([3H] glycine uptake in T98G cells expressing GlyT1)
Assay type: cell-based
Conditions: glycine uptake inhibition
Outline: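 T98G glioma cells expressing human GlyT1 were pretreated 10 min with compound in HEPES buffer pH 7.4 (0.2% BSA), then incubated with compound plus 250 nM final [3H]glycine for 15 min at room temperature. Intracellular radioactivity was counted after NaOH lysis; 10 μM ALX5407 defined non-specific uptake. IC50 came from 10^−9–10^−5 M curves.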

Structure (SMILES)	pIC50
C[C@H](O)c1cccc2c1C(F)(F)C(=O)N2Cc1cncc(-n2ccnn2)c1 [Compound 87, 3,3-difluoro-4-[(1S)-1-hydroxyethyl]-1-{[5-(1H-1,2,3-triazol-1-yl)pyridin-3-yl]methyl}-1,3-dihydro-2H-indol-2-one]	5.82
C[C@H](O)c1cccc2c1C(F)(F)C(=O)N2Cc1nc2ccccc2[nH]1 [Compound 88, 1-(1H-benzimidazol-2-ylmethyl)-3,3-difluoro-4-[(1S)-1-hydroxyethyl)-1,3-dihydro-2H-indol-2-one]	7.06
C[C@H](O)c1cccc2c1C(F)(F)C(=O)N2Cc1n[nH]c2ccccc12 [Compound 89, 3,3-difluoro-4-[(1S)-1-hydroxyethyl]-1-(1H-indazol-3-ylmethyl)-1,3-dihydro-2H-indol-2-one]	6.72
Cc1nc(CN2C(=O)C(F)(F)c3c([C@H](C)O)cccc32)oc1C [Compound 91, 1-[(4,5-dimethyl-1,3-oxazol-2-yl)methyl]-3,3-difluoro-4-[(1S)-1-hydroxyethyl]-1,3-dihydro-2H-indol-2-one]	6.89
C[C@H](O)c1cccc2c1C(F)(F)C(=O)N2Cc1nc2cc(F)ccc2o1 [Compound 92, 3,3-difluoro-1-[(5-fluoro-1,3-benzoxazol-2-yl)methyl]-4-[(1S)-1-hydroxyethyl]-1,3-dihydro-2H-indol-2-one]	7.16
O=C1N(Cc2cncc(Cl)c2)c2ccc(Cl)c([C@@H](O)C(F)(F)F)c2C1(F)F [Compound 95, 5-chloro-1-[(5-chloropyridin-3-yl)methyl]-3,3-difluoro-4-[(1R)-2,2,2-trifluoro-1-hydroxyethyl]-1,3-dihydro-2H-indol-2-one]	6.00
C[C@H](O)c1cccc2c1C(F)(F)C(=O)N2Cc1cc(F)ccn1 [Compound 97, 3,3-difluoro-1-[(4-fluoropyridin-2-yl)methyl]-4-[(1S)-1-hydroxyethyl]-1,3-dihydro-2H-indol-2-one]	7.04
C[C@H](O)c1cccc2c1C(F)(F)C(=O)N2Cc1ccc(Cl)nc1 [Compound 102, 1-[(6-chloropyridin-3-yl)methyl]-3,3-difluoro-4-[(1S)-1-hydroxyethyl]-1,3-dihydro-2H-indol-2-one]	7.04
C[C@H](O)c1cccc2c1C(F)(F)C(=O)N2Cc1cccc2ccnn12 [Compound 104, 3,3-difluoro-4-[(1S)-1-hydroxyethyl]-1-(pyrazolo[1,5-a]pyridin-7-ylmethyl)-1,3-dihydro-2H-indol-2-one]	7.06
C[C@H](O)c1cccc2c1C(F)(F)C(=O)N2Cc1nnc2ccccc2n1 [Compound 105, 1-(1,2,4-benzotriazin-3-ylmethyl)-3,3-difluoro-4-[(1S)-1-hydroxyethyl]-1,3-dihydro-2H-indol-2-one]	6.00
COc1ccc(CN2C(=O)C(F)(F)c3c([C@H](C)O)cccc32)nc1 [Compound 106, 3,3-difluoro-4-[(1S)-1-hydroxyethyl]-1-[(5-methoxypydin-2-yl)methyl]-1,3-dihydro-2H-indol-2-one]	6.09
C[C@H](O)c1c(Cl)ccc2c1C(F)(F)C(=O)N2Cc1ccnc(C#N)c1 [Compound 107, 4-({5-chloro-3,3-difluoro-4-[(1S)-1-hydroxyethyl]-2-oxo-2,3-dihydro-1H-indol-1-yl}methyl)pyridine-2-carbonitrile]	6.82
C[C@H](O)c1cccc2c1C(F)(F)C(=O)N2Cc1nc2ncccc2c(=O)n1C [Compound 108, 2-({3,3-difluoro-4-[(1S)-1-hydroxyethyl]-2-oxo-2,3-dihydro-1H-indol-1-yl}methyl)-3-methylpyrido[2,3-d]pyrimidin-4(3H)-one]	6.62
C[C@H](O)c1cccc2c1C(F)(F)C(=O)N2Cc1nc2cnccc2c(=O)n1C [Compound 111, 2-({3,3-difluoro-4-[(1s)-1-hydroxyethyl]-2-oxo-2,3-dihydro-1H-indol-1-yl}methyl)-3-methylpyrido[3,4-d]pyrimidin-4(3H)-one]	6.89
C[C@H](O)c1cccc2c1C(F)(F)C(=O)N2Cc1ccc(C#N)cn1 [Compound 113, 6-({3,3-difluoro-4-[(1S)-1-hydroxyethyl]-2-oxo-2,3-dihydro-1H-indol-1-yl}methyl)pyridine-3-carbonitrile]	6.03
C[C@H](O)c1cccc2c1C(F)(F)C(=O)N2Cc1ccc2cc[nH]c2n1 [Compound 115, 3,3-difluoro-4-[(1S)-1-hydroxyethyl]-1-(1H-pyrrolo[2,3-b]pyridin-6-ylmethyl)-1,3-dihydro-2H-indol-2-one]	7.01
C[C@H](O)c1cccc2c1C(F)(F)C(=O)N2Cc1cncc(C(F)F)c1 [Compound 116, 1-{[5-(difluoromethyl)pyridin-3-yl]methyl}-3,3-difluoro-4-[(1S)-1-hydroxyethyl]-1,3-dihydro-2H-indol-2-one]	6.96
C[C@H](O)c1cccc2c1C(F)(F)C(=O)N2Cc1noc2ccccc12 [Compound 119, 1-(1,2-benzoxazol-3-ylmethyl)-3,3-difluoro-4-[(1S)-1-hydroxyethyl]-1,3-dihydro-2H-indol-2-one]	7.11

Stronger by pIC50, values ahead:

pIC50	Structure (SMILES)
7.34	C[C@H](O)c1c(Cl)ccc2c1C(F)(F)C(=O)N2Cc1cncc(Cl)c1 [Compound 90, 5-chloro-1-[(5-chloropyridin-3-yl)methyl]-3,3-difluoro-4-[(1S)-1-hydroxyethyl]-1,3-dihydro-2H-indol-2-one]
7.27	C[C@H](O)c1cccc2c1C(F)(F)C(=O)N2Cc1c2ccccc2nn1C [Compound 93]
8.22	C[C@H](O)c1cccc2c1C(F)(F)C(=O)N2Cc1ccc(C(F)(F)F)o1 [Compound 94, 3,3-difluoro-4-[(1S)-1-hydroxyethyl]-1-{[5-(trifluoromethyl)furan-2-yl]methyl}-1,3-dihydro-2H-indol-2-one]
7.29	C[C@H](O)c1cccc2c1C(F)(F)C(=O)N2Cc1cc(C(F)(F)F)ccn1 [Compound 96, 3,3-difluoro-4-[(1S)-1-hydroxyethyl]-1-{[4-(trifluoromethyl)pyridin-2-yl]methyl}-1,3-dihydro-2H-indol-2-one]
7.47	C[C@H](O)c1cccc2c1C(F)(F)C(=O)N2Cc1nc2ccccc2[nH]c1=O [Compound 98, 3-({3,3-difluoro-4-[(1S)-1-hydroxyethyl]-2-oxo-2,3-dihydro-1H-indol-1-yl}methyl) quinoxalin-2(1H)-one]
7.32	C[C@H](O)c1cccc2c1C(F)(F)C(=O)N2Cc1cc2ccccc2c(=O)[nH]1 [Compound 99, 3-({3,3-difluoro-4-[(1S)-1-hydroxyethyl]-2-oxo-2,3-dihydro-1H-indol-1-yl}methyl) isoquinolin-1(2H)-one]
7.54	C[C@H](O)c1cccc2c1C(F)(F)C(=O)N2Cc1cc2ccccc2c(=O)n1C [Compound 100, 3-({3,3-difluoro-4-[(1S)-1-hydroxyethyl]-2-oxo-2,3-dihydro-1H-indol-1-yl}methyl)-2-methylisoquinolin-1(2H)-one]
7.39	C[C@H](O)c1cccc2c1C(F)(F)C(=O)N2Cc1nc2ccccc2n(C)c1=O [Compound 101, 3-({3,3-difluoro-4-[(1S)-1-hydroxyethyl]-2-oxo-2,3-dihydro-1H-indol-1-yl}methyl)-1-methylquinoxalin-2(1H)-one]
7.36	C[C@H](O)c1cccc2c1C(F)(F)C(=O)N2Cc1ccc(Cl)cn1 [Compound 103, 1-[(5-chloropyridin-2-yl)methyl]-3,3-difluoro-4-[(1S)-1-hydroxyethyl]-1,3-dihydro-2H-indol-2-one]
7.54	C[C@H](O)c1cccc2c1C(F)(F)C(=O)N2Cc1ccc(C(F)(F)F)cn1 [Compound 112, 3,3-difluoro-4-[(1S)-1-hydroxyethyl]-1-{[5-(trifluoromethyl)pyridin-2-yl]methyl}-1,3-dihydro-2H-indol-2-one]
7.21	C[C@H](O)c1cccc2c1C(F)(F)C(=O)N2Cc1ccc(F)cn1 [Compound 114, 3,3-difluoro-1-[(5-fluoropyridin-2-yl)methyl]-4-[(1S)-1-hydroxyethyl]-1,3-dihydro-2H-indol-2-one]
7.51	C[C@H](O)c1cccc2c1C(F)(F)C(=O)N2Cc1ccnc(C(F)F)c1 [Compound 117, 1-{[2-(difluoromethyl)pyridin-4-yl]methyl}-3,3-difluoro-4-[(1S)-1-hydroxyethyl]-1,3-dihydro-2H-indol-2-one]
7.57	C[C@H](O)c1cccc2c1C(F)(F)C(=O)N2Cc1ccc(C(F)(F)F)nc1 [Compound 118, 3,3-difluoro-4-[(1S)-1-hydroxyethyl]-1-{[6-(trifluoromethyl)pyridin-3-yl]methyl}-1,3-dihydro-2H-indol-2-one]
7.41	C[C@H](O)c1cccc2c1C(F)(F)C(=O)N2Cc1cncc(C(F)(F)F)c1 [Compound 121]
